Patent publication US12319967B2, “Methods and compositions for diagnosing and treating prostate cancer based on long noncoding RNA overlapping the LCK gene that regulates prostate cancer cell growth” (University of Virginia Patent Foundation, priority 2019, dated 2025)

System: HULLK
Test: qPCR of HULLK (LCK 3'UTR / exon 13) transcript levels in response to hormone and AR, p300 or Brd4 inhibition
Type: cell-based, human
Settings: for HULLK expression in response to R1881: 1 nM R1881; for R1881-induced increase in LCK 3'UTR transcript levels: 1 nM R1881, 24 hrs
Protocol: FIGS. 2A through 2E illustrate that HULLK is an AR-regulated lncRNA. […] LNCaP and C42 cells were transduced with two independent shRNAs to LCK and treated with 0-1 nM R1881. RNA was collected on Day 4 and LCK transcript levels were determined using LCK primers targeting the 3′UTR. […] LNCaP and C42 cells were seeded for 48 hrs, and then, treated with 1 nM R1881 in the presence or absence of 10 μM enzalutamide. RNA was collected 24 hrs after treatment and LCK transcript levels were determined by qPCR using LCK primers targeting the 3′UTR. C4-2, DU145, and PC3 cells were seeded in CSS media for 48 hrs, and then, treated with 1 nM R1881 for 16 hrs. RNA was collected and LCK transcript levels were determined using LCK primers targeting the 3′UTR. […] FIG. 2E illustrates that Brd4 inhibition reduces the hormone induction of HULLK, n=3. LNCaP, C42, or Jurkat cells were seeded for 48 hrs in the appropriate growth media, and then, treated with 1 nM R1881 in the presence or absence of 0.3 μM A-485 or 0.1 μM JQ1. RNA was collected 24 hrs after treatment and LCK transcript levels were determined by qPCR using LCK primers targeting exon 13 or 3′UTR. PSA and TMPRSS2 transcripts were determined to verify the efficacy of p300 and Brd4 inhibition.
FIGS. 7A and 7B illustrate the regulation of HULLK by the AR in breast cancer cells. […] LNCaP, MCF7, BT549, and MDA-MD-231 cells were seeded in the appropriate growth media, and whole cell lysates were collected 48 hrs later and blotted for AR21 and ERK1/2. […] MCF7, BT549, and MDA-MB-231 cells were seeded in CSS media for 48 hrs, and then, treated with 1 nM R1881 for 16 hrs. RNA was collected and LCK transcript levels were determined using LCK primers targeting the 3′UTR, n=3.
Cell Culture and Reagents. LNCaP and C4-2 cells (a gift from Dr. L. W. K. Chung) were grown in DMEM:F12 (Invitrogen) with 5% Non-Heat-Inactivated serum (Gemini) and 1% Insulin-Transferrin-Selenium-Ethanolamine (ThermoFisher). CWR22Rv1 (Rv1), VCaP, PC3 (gifts from Drs. Steven Balk, Karen Knudsen, and Chung, respectively), WMPY-1 (ATCC), MCF7, BT549 and MDA-MB-231 (gifts from Dr. Amy Bouton) were grown in DMEM (Invitrogen) with 10% Heat-Inactivated serum. DU145 (a gift from Dr. Chung), PANC1 (a gift from Dr. J. Thomas Parsons), HeLa and Jurkat cells (gifts from Dr. Tim Bender) were grown in RPMI-1640 (Invitrogen) with 10% Heat-Inactivated serum. LHS cells (a gift from Dr. William Hahn) were grown in ProstaLife Epithelial Cell Medium (Lifeline). RWPE-1 (ATCC) cells were grown in Keratinocyte-Serum-Free Media (Invitrogen). For growth and RNA experiments, phenol-red free DMEM:F12 media with 5% Charcoal-Stripped Serum (CSS) (Gemini) was used.
RNA Isolation, qPCR and ddPCR: RNA was collected using TRIzol and quantitated using a NanoDrop 2000 UV-Vis Spectrophotometer (ThermoFisher). cDNA was synthesized using Superscript IV VILO cDNA synthesis kit (Invitrogen). Quantitative real-time PCR (qPCR) was performed as previously described (17,18). Droplet digital PCR (ddPCR) was executed according to the manufacturer's protocol (Bio-Rad).
To assess whether this lncRNA is modulated by hormone, transcript levels of this lncRNA were quantified by qPCR using 3′UTR primers in LNCaP and C4-2 cells transduced in the presence of increasing concentrations of R1881 (FIG. 2A). […] This increase was inhibited in the presence of two independent LCK shRNAs in both cell lines.
This hormone regulation was confirmed by measuring transcript amounts in LNCaP and C4-2 cells treated with vehicle or R1881 in the presence or absence of the anti-androgen enzalutamide (FIG. 2B). As expected, there was an 8-fold and 12-fold R1881-induced increase in LCK 3′UTR transcript levels in LNCaP and C4-2 cells, respectively. […] Androgen deprivation influenced message levels negligibly in LNCaP cells, but decreased transcript amounts of this lncRNA by approximately 2.9-fold in C4-2 cells (FIG. 2B, C4-2 vehicle vs. media). […]

C[C@]1(O)CC[C@H]2[C@@H]3CCC4=CC(=O)CCC4=C3C=C[C@@]21C [R1881]
R1881-induced increase in this lncRNA (HULLK) (AR-null DU145 and PC3 cells, 1 nM R1881, 16 hrs): no R1881-induced increase | HULLK expression in response to R1881 (BT549 or MDA-MB-231 cells): not | R1881-induced increase in LCK 3'UTR transcript levels (C4-2 cells): 12 fold | lncRNA transcripts in response to increasing concentrations of R1881 (LNCaP and C4-2 cells, 0-1 nM R1881, 3'UTR primers): dose-dependent increase | R1881-induced increase in LCK 3'UTR transcript levels (LNCaP cells): 8 fold | HULLK expression in response to R1881 (MCF7 cells): increases
